Reference: US11377442B2, “Small molecule agonists and antagonists of NR2F6 activity” (ZANDER THERAPEUTICS, INC., priority 2016, dated 2022)
Read-outs that look alike come from different tables or passages of the source. Values belong to the molecule of their own block, whether it stands above or below them.

What was measured:
Format in all cases: cell-based
[1] = molecular target: T1, NR2F6 (Homo sapiens, UniProt P10588); experiment: NR2F6 agonist screening, Firefly signal cmpd/DMSO
T1 construct: expressed in transfected cells; also transient transfection
T1 sequence (P10588 1-404): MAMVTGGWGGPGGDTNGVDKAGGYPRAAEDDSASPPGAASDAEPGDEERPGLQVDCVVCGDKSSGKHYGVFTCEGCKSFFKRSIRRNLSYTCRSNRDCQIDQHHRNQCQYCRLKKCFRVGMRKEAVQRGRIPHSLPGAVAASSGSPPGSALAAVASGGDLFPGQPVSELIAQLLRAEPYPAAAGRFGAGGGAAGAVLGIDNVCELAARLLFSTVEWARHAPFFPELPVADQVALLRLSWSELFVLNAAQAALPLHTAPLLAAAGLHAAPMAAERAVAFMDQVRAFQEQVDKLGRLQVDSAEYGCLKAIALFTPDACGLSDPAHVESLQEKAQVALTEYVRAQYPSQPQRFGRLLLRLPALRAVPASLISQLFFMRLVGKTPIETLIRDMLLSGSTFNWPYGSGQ

[2] = system: Renilla; experiment: Renilla signal in NR2F6 agonist screening, cmpd/DMSO; settings: Renilla, F4
[3] = system: HEK293 pGL4; experiment: Firefly_pGL signal, cmpd/DMSO (pGL4 control cells); settings: Homo sapiens
[4] = molecular target: T2, NR2F6 LBD (Homo sapiens, UniProt P10588); experiment: NR2F6 LBD transient transfection; settings: LBD
T2 construct: expressed in transfected cells
T2 sequence (P10588 165-393 limits assumed): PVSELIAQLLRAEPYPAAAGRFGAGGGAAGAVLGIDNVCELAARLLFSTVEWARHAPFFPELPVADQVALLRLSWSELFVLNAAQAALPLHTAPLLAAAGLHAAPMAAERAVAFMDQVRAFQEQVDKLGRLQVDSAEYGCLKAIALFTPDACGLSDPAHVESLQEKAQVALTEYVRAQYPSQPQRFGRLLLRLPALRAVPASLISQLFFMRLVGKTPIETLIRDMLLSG
Method: FIGS. 27A and 27B show NR2F6 and LBD transient transfection, respectively, for Compound D28. Higher concentrations were excluded due to lower signal (tox effect). FIGS. 27C and 27D show NR2F6 and LBD transient transfection at different concentrations for different compounds. 9 compounds were tested on LBD transfected cells (40, 10, 2 and 0.5 μM, 4 replicates). FIGS. 27E and 27F show toxicity of Compound D28. 9 compounds were tested for cytotoxicity on LBD transfected cells (40, 10, 2 and 0.5 μM, 4 replicates). […] Cytotoxicity normalized to DMSO is shown in FIG. 27F (0% cytotoxicity corresponds to DMSO signal, 100%—zero signal).
FIGS. 34A and 34B show NR2F6 LBD transient transfection for Compound E21. 9 compounds were tested on LBD transfected cells (40, 10, 2 and 0.5 μM, 4 replicates). FIGS. 34C and 34D show NR2F6 and LBD transient transfection at different concentrations for different compounds. 9 compounds were tested on LBD transfected cells (40, 10, 2 and 0.5 μM, 4 replicates). […] Cytotoxicity normalized to DMSO is shown in FIG. 34D (0% cytotoxicity corresponds to DMSO signal, 100%—zero signal). All compounds were tested at 5, 10, 25 and 50 uM in duplicates. Dog PBMC (1×10^6 cells/mL) were activated by 10 ng/mL PMA+500 ng/mL ionomycin. Data were normalized to controls with (100%)/without (0%) PMA+ionomycin activation.
FIGS. 39A and 39B show NR2F6 LBD transient transfection for Compound F1. 9 compounds were tested on LBD transfected cells (40, 10, 2 and 0.5 μM, 4 replicates). FIGS. 39C and 39D show toxicity of NR2F6 LBD transient transfection. 9 compounds were tested for cytotoxicity on LBD transfected cells (40, 10, 2 and 0.5 μM, 4 replicates). Tox effect causes lower signal compared to DMSO. Cytotoxicity normalized to DMSO is shown in FIG. 39D (0% cytotoxicity corresponds to DMSO signal, 100%—zero signal).

[5] = read-out: Renilla, F4, cmpd/DMSO (mean)
[6] = 1% FBS, read-out: Renilla, F4, 1% FBS, cmpd/DMSO (mean)
[7] = 10% FBS, read-out: Renilla, F4, 10% FBS, cmpd/DMSO (mean)
[8] = HEK293, 0.5 uM, pGL4, read-out: Firefly pGL4, cmpd/DMSO (mean)
[9] = HEK293, 2 uM, pGL4, read-out: Firefly pGL4, cmpd/DMSO (mean)
[10] = HEK293, 10 uM, pGL4, read-out: Firefly pGL4, cmpd/DMSO (mean)
[11] = HEK293, 40 uM, pGL4, read-out: Firefly pGL4, cmpd/DMSO (mean)
[12] = HEK293, pGL4, 1% FBS, 0.5 uM, read-out: Firefly, pGL4, 1% FBS, cmpd/DMSO (mean)
[13] = HEK293, pGL4, 1% FBS, 2 uM, read-out: Firefly, pGL4, 1% FBS, cmpd/DMSO (mean)
[14] = HEK293, pGL4, 1% FBS, 10 uM, read-out: Firefly, pGL4, 1% FBS, cmpd/DMSO (mean)
[15] = HEK293, pGL4, 1% FBS, 40 uM, read-out: Firefly, pGL4, 1% FBS, cmpd/DMSO (mean)
[16] = HEK293, pGL4, 10% FBS, 0.5 uM, read-out: Firefly, pGL4, 10% FBS, cmpd/DMSO (mean)
[17] = HEK293, pGL4, 10% FBS, 2 uM, read-out: Firefly, pGL4, 10% FBS, cmpd/DMSO (mean)
[18] = HEK293, pGL4, 10% FBS, 10 uM, read-out: Firefly, pGL4, 10% FBS, cmpd/DMSO (mean)
[19] = HEK293, pGL4, 10% FBS, 40 uM, read-out: Firefly, pGL4, 10% FBS, cmpd/DMSO (mean)

- Firefly F4, cmpd/DMSO (mean) ([1]; 0.5 uM): 1.3
- Firefly F4, cmpd/DMSO (mean) ([1]; 2 uM): 1.5
- Firefly F4, cmpd/DMSO (mean) ([1]; 10 uM): 5.1
- Firefly F4, cmpd/DMSO (mean) ([1]; 40 uM): 2.2
- F4, Firefly/Renilla for S/B(F4) > 3 ([1]; 1% FBS, 10 uM): 2.3
- Firefly, F4/pGL4 for S/B(F4) > 3 ([1]; 1% FBS, 10 uM): 1.7
- F4, Firefly/Renilla for S/B(F4) > 3 ([1]; 10% FBS, 10 uM): 2.1
- Firefly, F4/pGL4 for S/B(F4) > 3 ([1]; 10% FBS, 10 uM): 1.8
- Firefly, F4, 1% FBS, cmpd/DMSO (mean) ([1]; 1% FBS, 0.5 uM): 0.8
- Firefly, F4, 1% FBS, cmpd/DMSO (mean) ([1]; 1% FBS, 2 uM): 1.2
- Firefly, F4, 1% FBS, cmpd/DMSO (mean) ([1]; 1% FBS, 10 uM): 4.7
- Firefly, F4, 1% FBS, cmpd/DMSO (mean) ([1]; 1% FBS, 40 uM): 0.2
- Firefly, F4, 10% FBS, cmpd/DMSO (mean) ([1]; 10% FBS, 0.5 uM): 1.0
- Firefly, F4, 10% FBS, cmpd/DMSO (mean) ([1]; 10% FBS, 2 uM): 1.2
- Firefly, F4, 10% FBS, cmpd/DMSO (mean) ([1]; 10% FBS, 10 uM): 3.6
- Firefly, F4, 10% FBS, cmpd/DMSO (mean) ([1]; 10% FBS, 40 uM): 1.7
- Firefly LBD, cmpd/DMSO (mean) ([4]; 0.5 uM): 1.1
- Firefly LBD, cmpd/DMSO (mean) ([4]; 2 uM): 1.7
- Firefly LBD, cmpd/DMSO (mean) ([4]; 10 uM): 4.1
- Firefly LBD, cmpd/DMSO (mean) ([4]; 40 uM): 0.8
Structure (SMILES): CC(C)CN[C@H]1CS(=O)(=O)C[C@@H]1S(=O)(=O)c1ccc(Cl)cc1 [Compound D120]
- fold induction at 0.5 µM [2, 5]: 1
- fold induction at 2 µM [2, 5]: 1.2
- fold induction at 10 µM [2, 5]: 1.7
- fold induction at 40 µM [2, 5]: 1.6
- fold induction at 0.5 µM [2, 6]: 1
- fold induction at 2 µM [2, 6]: 1.3
- fold induction at 10 µM [2, 6]: 2.1
- fold induction at 40 µM [2, 6]: 0.6
- fold induction at 0.5 µM [2, 7]: 1
- fold induction at 2 µM [2, 7]: 1.1
- fold induction at 10 µM [2, 7]: 1.7
- fold induction at 40 µM [2, 7]: 1.5
- fold induction at 0.5 µM [3, 8]: 1.4
- fold induction at 2 µM [3, 9]: 1.5
- fold induction at 10 µM [3, 10]: 3.7
- fold induction at 40 µM [3, 11]: 0.8
- fold induction at 0.5 µM [3, 12]: 1.5
- fold induction at 2 µM [3, 13]: 1.5
- fold induction at 10 µM [3, 14]: 2.8
- fold induction at 40 µM [3, 15]: 0.9
- fold induction at 0.5 µM [3, 16]: 1.1
- fold induction at 2 µM [3, 17]: 1.7
- fold induction at 10 µM [3, 18]: 2
- fold induction at 40 µM [3, 19]: 0.7

- Firefly F4, cmpd/DMSO (mean) ([1]; 0.5 uM): 1.0
- Firefly F4, cmpd/DMSO (mean) ([1]; 2 uM): 1.1
- Firefly F4, cmpd/DMSO (mean) ([1]; 10 uM): 1.4
- Firefly F4, cmpd/DMSO (mean) ([1]; 40 uM): 2.2
- Firefly, F4, 1% FBS, cmpd/DMSO (mean) ([1]; 1% FBS, 0.5 uM): 1.0
- Firefly, F4, 1% FBS, cmpd/DMSO (mean) ([1]; 1% FBS, 2 uM): 0.8
- Firefly, F4, 1% FBS, cmpd/DMSO (mean) ([1]; 1% FBS, 10 uM): 1.1
- Firefly, F4, 1% FBS, cmpd/DMSO (mean) ([1]; 1% FBS, 40 uM): 1.8
- Firefly, F4, 10% FBS, cmpd/DMSO (mean) ([1]; 10% FBS, 0.5 uM): 1.5
- Firefly, F4, 10% FBS, cmpd/DMSO (mean) ([1]; 10% FBS, 2 uM): 1.3
- Firefly, F4, 10% FBS, cmpd/DMSO (mean) ([1]; 10% FBS, 10 uM): 0.7
- Firefly, F4, 10% FBS, cmpd/DMSO (mean) ([1]; 10% FBS, 40 uM): 1.3
- Firefly LBD, cmpd/DMSO (mean) ([4]; 0.5 uM): 0.9
- Firefly LBD, cmpd/DMSO (mean) ([4]; 2 uM): 0.9
- Firefly LBD, cmpd/DMSO (mean) ([4]; 10 uM): 1.3
- Firefly LBD, cmpd/DMSO (mean) ([4]; 40 uM): 2.2
Structure (SMILES): Cc1cc(S(=O)(=O)[C@H]2CS(=O)(=O)C[C@@H]2NCC2CCCO2)ccc1F (stereo partly drawn) [Compound D115]
- fold induction at 0.5 µM [2, 5]: 1
- fold induction at 2 µM [2, 5]: 1
- fold induction at 10 µM [2, 5]: 1
- fold induction at 40 µM [2, 5]: 1.1
- fold induction at 0.5 µM [2, 6]: 1.1
- fold induction at 2 µM [2, 6]: 1
- fold induction at 10 µM [2, 6]: 1.2
- fold induction at 40 µM [2, 6]: 1.5
- fold induction at 0.5 µM [2, 7]: 1
- fold induction at 2 µM [2, 7]: 1
- fold induction at 10 µM [2, 7]: 1.1
- fold induction at 40 µM [2, 7]: 1.3
- fold induction at 0.5 µM [3, 8]: 1.2
- fold induction at 2 µM [3, 9]: 1.2
- fold induction at 10 µM [3, 10]: 1.3
- fold induction at 40 µM [3, 11]: 2
- fold induction at 0.5 µM [3, 12]: 1.1
- fold induction at 2 µM [3, 13]: 1.2
- fold induction at 10 µM [3, 14]: 1.2
- fold induction at 40 µM [3, 15]: 1.6
- fold induction at 0.5 µM [3, 16]: 1.2
- fold induction at 2 µM [3, 17]: 1.2
- fold induction at 10 µM [3, 18]: 1.6
- fold induction at 40 µM [3, 19]: 2.1
